Measurements from patent US20100278730A1, “Non-Invasive Molecular Imaging of Cellular Histone Deacetylase Substrate Using Magnetic Resonance Spectroscopy (MRS) or Positron Emission Tomography (PET)” (priority 2007, published 2010).

Columns and labels:
PC-3 tumor = experiment: 19F/31P/1H MRS of PC-3 tumors after BLT injection, with or without SAHA treatment (Example 2); format: in vivo, mice
Experimental: Methods and Results: PC-3 cells (10^6) were injected into the flank of male nude mice. MR experiments were first performed when tumors were ˜1 cm in diameter. Mice were anesthetized using isoflurane. A 10-mm home-built ^19F surface coil (milled from a polymer-based flexible substrate using a ProtoMat C100/HF (LPKF Laser & Electronics, Wilsonville, Oreg.)) was placed over the tumor, and the animal placed at the center of the magnet. Varacator diodes in the impedance matching circuitry provided a means to match and tune the coil from the console. Following localization, a T2-weighted image of the tumor was recorded using the RARE sequence (TE=45 ms, TR=2 s) via the ^19F surface coil tuned to ^1H. Localized shimming was performed using FASTMAP and achieved ˜20 Hz line width for the water peak. A localized ^1H spectrum was then acquired using a single-voxel PRESS sequence (TE=21 ms, TR=3 s, 96 scans) with VAPOR water suppression. Following retuning of the coil to ^19F, a ‘baseline’ ^19F spectrum was then acquired using a one-pulse sequence (45° flip angle, 300 scans, TR=1 s). A microsphere filled with 20 mM trifluorotoluene (−63.7 ppm) served as an external reference. 100 mg/kg BLT (in 40 μl DMSO) was then injected i.p. and sequential 5-minute ^19F spectra acquired over 90 minutes. The ^19F surface coil was then replaced with a ^31P coil and a spectrum acquired from the tumor region using a one-pulse sequence (30° flip angle, 900 scans, TR=2 s). Adequate SNR was achieved within 30 min.
Following 1 week of treatment, the MR study was repeated.

[1] = Toxicity study of Boc-lysine trifluoroacetic acid (BLT) in nude mice; format: in vivo; conditions: 100 mg/kg BLT i.p. in DMSO on days 1, 8, 15; male nude mice; vs DMSO-treated controls
Experimental: Rationale: BLT must have no detectable toxic effects at levels that result in an MRS-visible signal in vivo if it were to be used as an imaging agent. To verify this, we monitored the toxicity of 100 mg/kg BLT (˜3 mM plasma concentration), which, based on previously published studies of fluorinated drugs, was expected to result in an MRS-detectable signal. (Hamstra, et al., Mol Ther, 10: 916-928, 2004; McSheehy, et al., Cancer Res, 60: 2122-2127, 2000; Gade, et al., Magn Reson Med, 52: 169-173, 2004; Chung, et al., Clin Cancer Res, 10:3863-3870, 2004; Aboagye, et al., Cancer Res, 58: 4075-4078, 1998).
Methods and Results: Four male nude mice were injected intraperitoneally with 100 mg/kg BLT in 40 μl of DMSO and 4 mice were injected with 40 μl of DMSO alone on days 1, 8, and 15 of the study. The mice were monitored daily for changes in weight, skin and hydration status, activity, behavior, feeding, and neurological status. On day 16, blood samples were collected, and blood counts and hepatic and kidney functions assessed (bilirubin, total protein, aspartate aminotransferase, alanine aminotransferase, creatinine, and blood urea nitrogen). At the end of the study, following animal euthanasia, mice were dissected and tissue samples obtained for histology (hematoxylin-eosin staining).

[2] = system: PC3 human prostate cancer cells tumor; experiment: In vivo detection of HDAC inhibition by MRS in PC3 tumors (Example 3); parameters: species or system mice
Experimental: Methods. 5×10^6 PC3 human prostate cancer cells suspended in matrigel were injected subcutaneously in male CD-1 nude mice (n=5). When an average tumor volume of 0.2 cm^3 was reached, mice were separated into 2 groups. The treated group (n=3) was treated daily with 50 mg/kg SAHA intraperitoneally, while the control mice were treated with carrier DMSO. MRS was performed on a 4.7T Biospec (Bruker Biospin, Billerica, Mass.) prior to treatment (day 0) and on days 2 and 7 of treatment, using a 1.5 cm (inner diameter) dual-tuned ^1H/^19F surface coil. […] BLT levels determined by ^19F MRS were normalized to the external reference aaa-trifluorotoluene (TFT) (Sigma-Aldrich Chemical Co., St. Louis, Mo.) in a micro-cell spherical bulb placed at a permanent location relative to the coil and expressed as % of maximum tumor BLT levels in each study. For each mouse and also for average values, a paired t-test of BLT evolution was performed for days 2 and 7 with respect to day 0. ^1H MRS data was analyzed by normalizing the tCho signal either to the total ^1H signal or to the internal water signal.

MB435 tumor xenografts = experiment: PET of [18F]-FAHA in MB435 tumor xenograft-bearing nude rats (second Example 4); format: in vivo, rat; conditions: blocking study, SAHA 50 mg/kg i.p. 1 hour prior; p<0.01 unpaired t test
Experimental: Methods: [^18F]-FAHA was synthesized with high specific activity according to a method developed at M. D. Anderson Cancer Center. Human breast cancer cells, cell line MB435, grown as described in Example 3, were used to grow tumor xenografts in nude rats. Ten million cancer cells were injected subcutaneously in the neck area of six nude rats. When tumors were 1 cm in diameter, animals were anesthetized, injected with [^18F]-FAHA (37 MBq) and PET imaging was performed (dynamic) up to 60 min post-injection. Two days after the initial imaging, another PET imaging with [^18F]-FAHA was performed using a […] (SAHA). The animals were given SAHA (50 mg/kg) intraperitoneally 1 hour prior to injection of the radiotracer.

[3] = system: HDAC activity in rat brain; experiment: PET imaging of HDAC activity in rat brain using [18F]-FAHA (Example 6); format: in vivo; conditions: SAHA 50 mg/kg i.p. 1 hour prior; p<0.01 unpaired t test
Experimental: Methods: [^18F]-FAHA was synthesized according to the methods developed in our laboratory in high specific activity. Imaging studies with [^18F]-FAHA were conducted in five rats using a PET scanner under isoflurane inhalation anesthesia. The animals were injected intravenously with 37 MBq of [^18F]-FAHA and dynamic scanning PET (0-60 min) was performed. During the imaging session, the rats were anesthetized with 1-1.5 vol % isoflurane/oxygen inhalation and continuously heated with a heating lamp. Two days after the initial study, another PET imaging was performed with [^18F]-FAHA using an […] (SAHA). Each animal was given SAHA (50 mg/kg), intraperitoneally 1 hour prior to injection of the [^18F]-FAHA.
In Table 6, “baseline” refers to brain uptake of FAHA without blocking by SAHA.

Compound	decrease in tumor BLT levels (PC-3 tumor; first 50 min following BLT injection i.p., PC-3 tumor, 19F MRS)	toxicity (weight, behavior, blood counts, hepatic and kidney functions, histology) [1]	19F MRS of BLT as indicator of HDAC inhibition ([2]; PC3 tumors, SAHA 50 mg/kg daily i.p., days 0, 2, 7, 100 mg/kg BLT i.p.)	tumor growth (PC-3 tumor; 50 mg/kg SAHA in DMSO daily i.p., PC-3 tumor, preliminary data)	BLT levels in the tumor in vivo (19F MRS, normalized to tumor size) (PC-3 tumor; 1 week of 50 mg/kg SAHA daily i.p. vs DMSO control and pre-treatment)	effect on uptake of [18F]-FAHA inside tumor (MB435 tumor xenografts)	effect on uptake of [18F]-FAHA inside brain [3]	phosphomonoesters and choline-containing metabolites (31P MRS and 1H MRS) ([2]; PC3 tumors following SAHA treatment 50 mg/kg daily i.p.)
CC(C)(C)OC(=O)N[C@@H](CCCCN)C(=O)O.O=C(O)C(F)(F)F [BLT, Boc-lysine trifluoroacetic acid]	~25%	no indication of significant toxicity was observed	detects HDAC inhibition prior to effect on tumor size	–	–	–	–	–
O=C(CCCCCCC(=O)Nc1ccccc1)NO [SAHA, suberoylanilide hydroxamic acid, reference compound]	–	–	–	inhibition of tumor growth	higher	significantly inhibited	significantly inhibited	transient increase
